According to US20160264593A1 (priority 2013, published 2016):
Read-outs that look alike come from different tables or passages of the source.

Assay: Pharmacokinetic study of 153 (and metabolite endothal) in SD rats, iv and po; plasma, liver, brain
Assay type: in vivo
Conditions: for MRT last: read-out: MRT (0-t); for half-life: read-out: T1/2 (converted); for Tmax: read-out: Tmax
Method: The blood, liver and brain tissue samples were collected at predetermined times from rats. […] Compound were diluted shortly before use in 4% sodium bicarbonate for sterile injection (this is the standard pediatric solution of NaHCO3 with a pH of about 8.5).
Compound 153 was freshly prepared by diluting the drugs shortly before use in 4% sodium bicarbonate for sterile injection (this is the standard pediatric solution of NaHCO3 with a pH of about 8.5). The final concentrations of 153 solutions were 0.25 mg/mL. The 153 solutions were administered via iv or po route at dose volume of 5 ml/kg according to the latest body weight. Compound 157 was freshly prepared by diluting the drugs shortly before use in 4% sodium bicarbonate for sterile injection (this is the standard pediatric solution of NaHCO3 with a pH of about 8.5). The final concentrations of […] solutions were 0.3 mg/mL. The 157 solutions were administered via iv or po route at dose volume of 5 ml/kg according to the latest body weight.
Twelve (12) female SD rats per group were dosed by iv with 153 or 157. The rats were fasted overnight prior to dosing, with free access to water. Foods were withheld for 2 hours post-dose. Blood, liver and brain tissue samples in two animals each group were collected at each time point, within 10% of the scheduled time for each time point. Two extra animals were used for analytic method development.
Blood (>0.3 mL) were collected via aorta abdominalis in anaesthetic animals into tubes containing heparin at 15 min, 1, 2, 6, 10 and 24 hours after iv administration. Liver and brain tissues were collected immediately after animal death. The liver and brain tissues were excised and rinsed with cold saline to avoid blood residual. Upon collection, each sample was placed on ice and the blood samples were subsequently centrifuged (4° C., 11000 rpm, 5 min) to separate plasma. The obtained plasma, liver and brain tissue samples were stored at −70° C. until LC-MS/MS analysis.
Two (2) female SD rats per group were dosed by po with 153 or 157. The rats were fasted overnight prior to dosing, with free access to water. Foods were withheld for 2 hours post-dose. Blood samples (>0.3 mL) were collected via aorta abdominalis in anaesthetic animals into tubes containing heparin at 30 min, 1, 2, 6, 10 and 24 hours after po administration.
To each sample, 20 μL IS-D (for blank samples, 20 μL acetonitrile:water (1:1) was added) and 300 μl acetonitrile was added. The sample mixture was vortexed for approximately 3 min. After centrifugation at 10000 rpm for 5 min at 4° C., 100 μL of the upper layer was transferred to a new tube and added 200 μL 0.4% formic acid in water (pH 6.0). The mixture was vortexed for approximately 3 min before injected onto the LC/MS/MS system for analysis.
On the day of the assay, the frozen liver and brain samples were thawed unassisted at room temperature. An about 200 mg weighed sample of each thawed tissue was placed into a plastic tube with water (0.6 mL) to facilitate homogenization. Tissue processing was conducted using a homogenizer for approximately 1 min, 200 μl homogenate was transferred into a fresh Eppendorf tube. To each tube, 50 μL IS-D was added and mixed. Then 600 μl acetonitrile was added and the sample mixture was vortexed for approximately 3 min. After centrifugation at 10000 rpm for 5 min at 4° C., 400 μL of the upper layer was transferred to a new tube and evaporate the supernatant to dryness at 35° C. Reconstitute the residue with 200 μL of 0.4% formic acid in water (pH6.0), and vortex for 3 min, submit for LC-MS/MS analysis.
Frozen unknown plasma samples were completely thawed at room temperature and vortexed thoroughly. With a pipette, 50 μL of plasma was transferred into a 2.0 mL Eppendorf tube. 50 μL of 0.1N HCl and 800 μL ethyl acetate were added into each sample. The sample mixture was vortexed for approximately 3 min.

[1] = female, SD, rat, in vivo, iv, 1.25 mg/kg, iv 1.25 mg/kg, Mean, read-out: 153 liver concentration
[2] = female, SD, rat, in vivo, iv, 1.25 mg/kg, iv 1.25 mg/kg, Mean, read-out: 153 plasma concentration
[3] = female, SD, rat, in vivo, iv, 1.25 mg/kg, iv 1.25 mg/kg, Rat 1, read-out: 153 brain concentration
[4] = female, SD, rat, in vivo, iv, 1.25 mg/kg, iv 1.25 mg/kg, Rat 1, read-out: 153 liver concentration
[5] = female, SD, rat, in vivo, iv, 1.25 mg/kg, iv 1.25 mg/kg, Rat 1, read-out: 153 plasma concentration
[6] = female, SD, rat, in vivo, iv, 1.25 mg/kg, iv 1.25 mg/kg, Rat 2, read-out: 153 brain concentration
[7] = female, SD, rat, in vivo, iv, 1.25 mg/kg, iv 1.25 mg/kg, Rat 2, read-out: 153 liver concentration
[8] = female, SD, rat, in vivo, iv, 1.25 mg/kg, iv 1.25 mg/kg, Rat 2, read-out: 153 plasma concentration
[9] = female, SD, rat, in vivo, po, 1.25 mg/kg, 153 in plasma, PO 1.25 mg/kg, Mean
[10] = female, SD, rat, in vivo, po, 1.25 mg/kg, 153 in plasma, PO 1.25 mg/kg, rat 1
[11] = female, SD, rat, in vivo, po, 1.25 mg/kg, 153 in plasma, PO 1.25 mg/kg, rat 2
[12] = female, SD, rat, in vivo, po, 1.25 mg/kg, PO per title, 1.25 mg/kg, Mean, read-out: 153 liver concentration
[13] = female, SD, rat, in vivo, po, 1.25 mg/kg, PO per title, 1.25 mg/kg, Rat 2, read-out: 153 liver concentration
[14] = female, Sprague-Dawley (SD), rat, in vivo, iv, 1.25 mg/kg, Brain, 1.25 mg/kg IV, Mean
[15] = female, Sprague-Dawley (SD), rat, in vivo, iv, 1.25 mg/kg, Brain, 1.25 mg/kg IV, rat 1
[16] = female, Sprague-Dawley (SD), rat, in vivo, iv, 1.25 mg/kg, Brain, 1.25 mg/kg IV, rat 2
[17] = female, Sprague-Dawley (SD), rat, in vivo, iv, 1.25 mg/kg, Liver, 1.25 mg/kg IV, Mean
[18] = female, Sprague-Dawley, rat, in vivo, po, 1.25 mg/kg, PO per title, 1.25 mg/kg, Rat 1, read-out: 153 liver concentration

CCCOC(=O)C1C2CCC(O2)C1C(=O)N1CCN(C)CC1 (stereo not shown) [Compound 153, 3-(4-Methylpiperazine-1-carbonyl)-7-oxa-bicyclo[2,2,1]heptane-2-carboxylic acid propyl ester]
concentration at 1 h [1]: 126 ng/g | concentration at 1 h [2]: 54.7 ng/mL | concentration at 1 h [3]: 13.9 ng/g | concentration at 1 h [4]: 131 ng/g | concentration at 1 h [5]: 58 ng/mL | concentration at 1 h [6]: 14.3 ng/g | concentration at 1 h [7]: 121 ng/g | concentration at 1 h [8]: 51.4 ng/mL | concentration at 2 h (female, SD, rat, in vivo, iv, 1.25 mg/kg, iv 1.25 mg/kg, Mean, read-out: 153 brain concentration): 4.4 ng/g | concentration at 2 h [1]: 41.6 ng/g | concentration at 2 h [2]: 13.9 ng/mL | concentration at 2 h [3]: 4.05 ng/g | concentration at 2 h [4]: 42 ng/g | concentration at 2 h [5]: 14.8 ng/mL | concentration at 2 h [6]: 4.75 ng/g | concentration at 2 h [7]: 41.2 ng/g | concentration at 2 h [8]: 13 ng/mL | concentration at 6 h (female, SD, rat, in vivo, iv, 1.25 mg/kg, iv 1.25 mg/kg, 6 hr, Mean): 1.03 ng/mL | concentration at 6 h (female, SD, rat, in vivo, iv, 1.25 mg/kg, iv 1.25 mg/kg, 6 hr, Rat 1): 1.04 ng/mL | concentration at 6 h (female, SD, rat, in vivo, iv, 1.25 mg/kg, iv 1.25 mg/kg, 6 hr, Rat 2): 1.02 ng/mL | concentration at 10 h (female, SD, rat, in vivo, iv, 1.25 mg/kg, iv 1.25 mg/kg, 10 hr, Rat 2, abnormal, not included in the calculation): 9.42 ng/mL | MRT last [9]: 60.6 min | half-life [9]: 20.6 min | AUC(0-inf) [10]: 163 ng·h/mL | AUC (female, SD, rat, in vivo, po, 1.25 mg/kg, 153 in plasma, PO 1.25 mg/kg, rat 1, read-out: AUC): 163 ng·h/mL | Cmax (female, SD, rat, in vivo, po, 1.25 mg/kg, 153 in plasma, PO 1.25 mg/kg, rat 1, read-out: Cmax): 249 ng/mL | MRT last [10]: 59.2 min | half-life [10]: 19.8 min | AUC(0-inf) [11]: 164 ng·h/mL | AUC (female, SD, rat, in vivo, po, 1.25 mg/kg, 153 in plasma, PO 1.25 mg/kg, rat 2, read-out: AUC): 164 ng·h/mL | Cmax (female, SD, rat, in vivo, po, 1.25 mg/kg, 153 in plasma, PO 1.25 mg/kg, rat 2, read-out: Cmax): 229 ng/mL | MRT last [11]: 62.4 min | half-life [11]: 21.3 min | AUC (female, SD, rat, in vivo, po, 1.25 mg/kg, 153 po 1.25 mg/kg, read-out: AUC of 153 in plasma): 164 ng·h/mL | Cmax (female, SD, rat, in vivo, po, 1.25 mg/kg, 153 po 1.25 mg/kg, read-out: Cmax of 153 in plasma): 239 ng/mL | concentration at 0.25 h [12]: 762 ng/g | concentration at 0.25 h [13]: 652 ng/g | concentration at 1 h [12]: 126 ng/g | concentration at 1 h (female, SD, rat, in vivo, po, 1.25 mg/kg, PO per title, 1.25 mg/kg, Rat 1, read-out: 153 liver concentration): 131 ng/g | concentration at 1 h [13]: 121 ng/g | AUC(0-t) (female, SD, rat, in vivo, 153 iv 1.25 mg/kg, read-out: AUClast of 153 in plasma): 295 ng·h/mL | bioavailability (female, SD, rat, in vivo, 153 po vs iv 1.25 mg/kg, read-out: BA (bioavailability) of 153): 55.4% | Cmax (female, Sprague-Dawley (SD), rat, in vivo, iv, 1.25 mg/kg, Brain, 1.25 mg/kg IV, Mean, read-out: Cmax): 42.7 ng/g | MRT last [14]: 58.3 min | half-life [14]: 35.8 min | Cmax (female, Sprague-Dawley (SD), rat, in vivo, iv, 1.25 mg/kg, Brain, 1.25 mg/kg IV, rat 1, read-out: Cmax): 45 ng/g | MRT last [15]: 56 min | half-life [15]: 33.7 min | Cmax (female, Sprague-Dawley (SD), rat, in vivo, iv, 1.25 mg/kg, Brain, 1.25 mg/kg IV, rat 2, read-out: Cmax): 40.3 ng/g | MRT last [16]: 60.6 min | half-life [16]: 37.7 min | Cmax (female, Sprague-Dawley (SD), rat, in vivo, iv, 1.25 mg/kg, Liver, 1.25 mg/kg IV, Mean, read-out: Cmax): 762 ng/g | MRT last [17]: 47.1 min | half-life [17]: 37.6 min | half-life (female, Sprague-Dawley (SD), rat, in vivo, iv, 1.25 mg/kg, Liver, 1.25 mg/kg IV, rat 2): 38.6 min | AUC(0-inf) (female, Sprague-Dawley (SD), rat, in vivo, po, 1.25 mg/kg, 153 in plasma, PO 1.25 mg/kg, Mean): 164 ng·h/mL | AUC (female, Sprague-Dawley (SD), rat, in vivo, po, 1.25 mg/kg, 153 in plasma, PO 1.25 mg/kg, Mean, read-out: AUC): 164 ng·h/mL | Cmax (female, Sprague-Dawley (SD), rat, in vivo, po, 1.25 mg/kg, 153 in plasma, PO 1.25 mg/kg, Mean, read-out: Cmax): 239 ng/mL | Tmax (female, Sprague-Dawley (SD), rat, in vivo, 153 in plasma, PO 1.25 mg/kg, Mean): 30 min | Tmax (female, Sprague-Dawley (SD), rat, in vivo, Liver, 1.25 mg/kg IV, Mean): 15 min | concentration at 0.25 h [18]: 872 ng/g | concentration at 2 h (female, Sprague-Dawley, rat, in vivo, po, 1.25 mg/kg, PO per title, 1.25 mg/kg, Mean, read-out: 153 liver concentration): 41.6 ng/g | concentration at 2 h [18]: 42 ng/g | concentration at 2 h (female, Sprague-Dawley, rat, in vivo, po, 1.25 mg/kg, PO per title, 1.25 mg/kg, Rat 2, read-out: 153 liver concentration): 41.2 ng/g | 153 liver concentration (iv 1.25 mg/kg, 6 hr, Rat 1): BLQ | 153 liver concentration (iv 1.25 mg/kg, 6 hr, Rat 2): BLQ | 153 liver concentration (iv 1.25 mg/kg, 10 hr, Rat 1): BLQ
